Assay results published in patent US20240245647A1, “ISOMEROHYDROLASE INHIBITOR FOR TREATMENT OF ATROPHIC FORM OF AGE-RELATED MACULAR DEGENERATION AND STARGARDT DISEASE” (The Trustees of Columbia University in the City of New York, priority 2021, published 2024).

How the values were obtained:
retina = assay: Light-induced retinal damage (LIRD); format: in vivo, BALB/c mice; conditions: 2 mg/kg, 10,000 lux 3 hr, 5 days post-LIRD
Experimental: FIG. 5. LIRD caused the degeneration in the retina and RPE, which was rescued by inhibitor at the dose of 2 mg/kg in BALB/c mice. (FIG. 5A) Representative histological analysis for the retinas of RPE65-61 injected mice 5 days post-LIRD. Retinal cross-sections of No LIRD Control, LIRD+Vehicle, and LIRD+inhibitor RPE65-61 from three groups were stained with H&E for morphological comparison, 40× magnification. (FIG. 5B) Representative OCT images of mice treated with RPE65-61. […] RPE: retinal pigment epithelium; IS: inner segment; OS: outer segment; ONL: outer nuclear layer; OPL: outer plexiform layer; INL: inner nuclear layer; IPL: inner plexiform layer; RNFL: retinal nerve fiber layer. Bars represent mean±SEM. with n=8 per group. Student's t-test. *P<0.05, **<0.01 and ***<0.001, ****<0.0001.
FIG. 6. […] (FIGS. 6A-B) Shown are representative images of the Western blot detection of rhodopsin protein expression and the correlating quantifications. (FIGS. 6C-D) Cone density was evaluated by immunofluorescence, representative confocal images of immunofluorescence labeling with Peanut Agglutinin Lectin (PNA) and the correlating quantifications, 40× magnification. […]
Mice were dark-adapted overnight with food and water ad libitum. […] The mice were returned to regular housing for 5 days and then the retinal damage was assessed. […]

VAP-1 [1] = biological target: T1, VAP-1 (Homo sapiens, UniProt Q16853); assay: in vitro; conditions: both, plasma, pH 7.4
T1 sequence (Q16853 29-763 limits assumed): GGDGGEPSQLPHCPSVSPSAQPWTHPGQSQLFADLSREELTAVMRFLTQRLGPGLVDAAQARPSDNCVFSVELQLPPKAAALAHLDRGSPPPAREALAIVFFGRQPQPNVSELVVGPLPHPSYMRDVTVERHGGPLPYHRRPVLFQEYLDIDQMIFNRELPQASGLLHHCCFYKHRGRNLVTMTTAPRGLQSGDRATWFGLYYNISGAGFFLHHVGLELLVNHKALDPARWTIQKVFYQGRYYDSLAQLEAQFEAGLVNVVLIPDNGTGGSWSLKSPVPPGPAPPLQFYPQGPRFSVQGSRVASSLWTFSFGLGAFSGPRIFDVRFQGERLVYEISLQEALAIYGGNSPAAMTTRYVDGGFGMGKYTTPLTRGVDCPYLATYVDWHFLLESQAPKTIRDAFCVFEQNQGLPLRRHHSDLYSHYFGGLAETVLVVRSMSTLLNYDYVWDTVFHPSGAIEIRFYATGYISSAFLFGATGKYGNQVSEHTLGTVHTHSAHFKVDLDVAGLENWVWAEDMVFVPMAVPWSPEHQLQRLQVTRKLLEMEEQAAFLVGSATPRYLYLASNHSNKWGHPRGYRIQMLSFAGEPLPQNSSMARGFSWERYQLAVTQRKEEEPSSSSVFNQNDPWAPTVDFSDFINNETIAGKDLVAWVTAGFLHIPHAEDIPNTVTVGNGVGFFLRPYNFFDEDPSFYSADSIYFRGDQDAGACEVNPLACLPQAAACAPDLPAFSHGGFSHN
Experimental: (§1) Studies were carried out in mixed-gender human plasma (Lot #HMN330460) and male Beagle dog plasma (Lot #BGL118112), obtained from BioIVT and collected on sodium heparin. Plasma was adjusted to pH 7.4 prior to initiating the experiments. DMSO stocks were first prepared for the test articles. Aliquots of the DMSO solutions were dosed into 1 mL of plasma, which had been pre-warmed to 37° C., at a final test article concentration of 1 μM. The vials were kept in a benchtop Thermomixer® for the duration of the experiment. Aliquots (100 μL) were taken at each time point (0, 15, 30, 60, and 120 minutes) and added to 96-well plates, which had been pre-filled with 300 μL of acetonitrile (ACN). Samples were stored at 4° C. until the end of the experiment. After the final time point was sampled, the plate was mixed and then centrifuged at 3,000 rpm for 10 minutes. Aliquots of the supernatant were removed, diluted 1:1 into distilled water, and analyzed by LC-MS/MS. The peak area response ratio to internal standard (PARR) was compared to the PARR at time 0 to determine the percent of test article remaining at each time point. Half-lives were calculated using GraphPad software, fitting to a single-phase exponential decay equation.

VAP-1 [2] = assay: in vitro; conditions: male, Beagle, dog, plasma, pH 7.4
Experimental: as §1

[3] = Sequestration of all-trans-retinal (atRAL) in vitro; conditions: 100 μM compound, equimolar atRAL, 30 min
Experimental: Test compounds (100 μM) were incubated with equimolar amounts of all-trans-retinal for 30 min. The UV-vis spectra were collected and the concentration of all-trans-retinal was assessed based on the 370 nm absorbance. (FIG. 11A) Graph bars show mean atRAL levels normalized to DMSO; error bars show SD; one-way ANOVA with Holm-Sidak post-hoc test was used for statistical analysis; *P<0.05; ****P<0.0001.

N=S(=O)(CCN)c1cccc(OCC2CCCCC2)c1 (racemic) [RPE65-61, (±)-(2-aminoethyl) (3-(cyclohexylmethoxy)phenyl) (imino)-λ^6-sulfanone]
effect against LIRD (histology, ERG) (retina): protective effect
half-life at 1 μM (VAP-1 [1]): > 120 min
half-life at 1 μM (VAP-1 [2]): 35.3 min
atRAL reduction [3]: 80%
